For the test, the system named is individual hippocampal cells. The test can be described thus: Single-cell Arc expression (aRNA amplification, real-time RT-PCR) after patch-clamp. Conditions: BDNF-treated cells, electrophysiologic responders (n=7) vs non-responders (n=9), p<0.05. In kind it is cell-based, rat. How it is done: FIG. 1A presents Arc expression in individual BDNF-treated cells following electrophysiological recordings and aRNA amplification. Arc transcription was measured by real-time RT-PCR and then normalized to internal GAPDH levels. The data are then expressed as a ratio of the average Arc expression in the seven control cells (expression ratio). FIG. 1B presents a correlation of Arc expression ratios to individual cell's synaptic BDNF responses. Average synaptic charge 3 to 5 minutes post-BDNF exposure expressed as a fold increase over baseline (−2 to 0 minute) was plotted against Arc expression ratios shown in FIG. 1A. Each circle represents one BDNF-treated cell. The cell number next to the circle corresponds with the cell number in FIG. 1A. Dashed line depicts a correlation coefficient indicating significance (r=0.66., p<0.005). The data are categorized into two groups of BDNF-treated cells: a cluster of non-responders (shaded) and a spread of responders (clear).
The molecular genetics of differential synaptic responses to BDNF was examined by performing single-cell transcriptional analysis after whole-cell patch-clamp. […] FIG. 1A represents Arc expression in cells exposed to BDNF relative to the average Arc expression in cells not exposed to BDNF (control) as assessed by real-time RT-PCR (expression ratio). […]
In general terms: In qPCR the cycle at which signal appears reflects the starting amount.

As to “BDNF: neurotrophin, 50 ng/ml, Preprotech; induces synaptic plasticity in hippocampal neurons”, the “Increase in Arc expression, responders relative to non-responders” value is given as 17 fold.

Source of the values: patent US20050272040A1, “Method for increasing synaptic growth or plasticity” (priority 2002, published 2005).
